From patent US20250163119A1, “COMPOUNDS FOR THE TREATMENT OF DIABETES OR OBESITY” (Eli Lilly and Company, priority 2023, published 2025)
*1 amine or outer side, *2 acyl side, *3 side chain or, on linkers, in order; H or OH if unused. Where a SMILES comes first, the peptide text is derived from it. Bridges are numbered along the chain shown (N, C = ends). Roman numbers before positions name the chains, in order. Side-chain parts run from the residue outwards. [ ]: non-standard residue; d: D form. The star is where a group is joined. C20 diacid = O=C(O)CCCCCCCCCCCCCCCCCCC(=O)*; γGlu = O=C(O)[C@H](CCC(=O)[*:2])N[*:1]; εLys = N[C@@H](CCCCN[*:1])C(=O)[*:2]; αMeL = CC(C)C[C@](C)(N)C(=O)O; AEEA = NCCOCCOCC(=O)O; Aib = CC(C)(N)C(=O)O; βAla = NCCC(=O)O

Assays:
human CRHR1 = molecular target: T1, human CRHR1 (Homo sapiens, UniProt P34998); assay: Human CRHR1 cAMP assay (HTRF) in HEK293 cells stably expressing human CRHR1; type: cell-based; conditions: HEK293 cells overexpressing human CRHR1; relative EC50, maximum 66 nM human UCN1; mean ± SE; read-out: hCRHR1 cAMP EC50 (pM, ± SE)
T1 construct: expressed in transfected cells
T1 sequence (P34998 24-415): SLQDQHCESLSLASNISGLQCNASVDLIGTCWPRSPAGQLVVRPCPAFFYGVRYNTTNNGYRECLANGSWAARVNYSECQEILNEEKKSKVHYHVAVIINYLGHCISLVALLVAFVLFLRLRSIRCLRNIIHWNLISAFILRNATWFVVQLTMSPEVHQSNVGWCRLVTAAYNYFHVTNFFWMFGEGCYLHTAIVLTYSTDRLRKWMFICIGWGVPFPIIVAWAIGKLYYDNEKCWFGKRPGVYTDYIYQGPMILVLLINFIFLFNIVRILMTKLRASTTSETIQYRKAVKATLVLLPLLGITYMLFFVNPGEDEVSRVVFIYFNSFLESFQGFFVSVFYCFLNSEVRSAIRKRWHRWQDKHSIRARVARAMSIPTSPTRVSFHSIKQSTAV
Protocol: The corticotropin-releasing hormone (CRH) receptor 1 and 2 (CRHR1 and CRHR2) are GPCRs that were functionally coupled to Gs proteins. Stimulation of these receptors results in an increased production of intracellular cAMP, which can be detected using standard in vitro technologies. In vitro activity of peptides was measured by the amount of cAMP formed in human CRHR1 and CRHR2 overexpressed cells.
Human CRHR1 and CRHR2 receptors were stably expressed in human embryonic kidney cells (HEK293) under control of a pcDNA expression vector. The HEK293 cell line was cultured in DMEM 1× (Gibco, 93-0152DK) supplemented with 10% FBS, 1 mM sodium pyruvate, 1×MEM NEAA, 1× GlutaMAX and 10 mM HEPES. The plasmids of human CRHR1-pQCXIP (T7364) and human CRHR2b-R2683puro (T16761) DNA were transfected into HEK293 cells using Lipo fectAMINE 3000 Transfection reagent (Invitrogen, L3000001). After 20 days under selection, the mRNA levels from different clones were measured to confirm the expression of human CRHR1 and CRHR2 genes. To determine the function of over-expressed CRHR cells, the intracellular cAMP levels in response to human UCN1 and UCN2 were measured and compared to the expression of CRHR1 and CRHR2 mRNA in each clone.
Human CRHR1 cells were cultured in DMEM 1× (Gibco, 93-0152DK) supplemented with 10% FBS, 1 mM sodium pyruvate, 1×MEM NEAA, 1×GlutaMAX, 10 mM HEPES, and 800 μg/ml G418. Human CRHR2 cells were cultured at the same media (DMEM 1×, 10% FBS, 1 mM sodium pyruvate, 1×MEM NEAA, 1×GlutaMAX, 10 mM HEPES) in the presence of 0.5 ug/mL puromycin. Cultured cells were grown to 90% confluency and harvested. The cells were frozen at 10×10e6/ml in a mixture of […] fetal bovine serum plus 7% DMSO and stored in liquid nitrogen until use.
On the day of the assay, the frozen cells were thawed and diluted in assay buffer (Phenol Red free MEM (Corning, 17-305-CV, lot #32121010), 0.1% Casein (Sigma C4765, lot #SLCG2120), 5 mM HEPES pH 7.4 containing 0.25 mM IBMX). 10 ul of human CRHR1 cells (25,000 cells) or 10 μL of human CRHR2 cells (5,000 cells) were dispensed into each well of white poly-D-lysine coated 384-well plates (Corning cat #354661). Test compounds diluted in DMSO were added (200 nL/well) in a 1:3 dilution series using ECHO acoustic liquid handler (Beckman). The mixture of cells and test compounds were incubated at 37° C. for 1 hour for the hCRHR1 plate, while the CRHR2 plates were incubated at room temperature for 30 min.
The amount of intracellular cAMP was quantitated using HTRF technology (Homogeneous Time Resolved Fluorescence; Cisbio) as per vendor instructions. Briefly, 10 uL CAMP-d2 conjugate and 10 uL anti-CAMP-cryptate conjugate in lysis buffer were incubated with the treated cells at room temperature for 60 min. The HTRF signal was immediately detected using an Envision plate reader (Perkin-Elmer) to calculate the ratio of fluorescence at 665 to 620 nm.
Raw fluorescence data for concentration curves of the peptides in Table 2 and Table 3 were converted to cAMP amount (pmol/well) using a cAMP standard curve generated for each experiment.

human CRHR2 = molecular target: T2, human CRHR2 (Homo sapiens, UniProt Q13324); assay: Human CRHR2 cAMP assay (HTRF) in HEK293 cells stably expressing human CRHR2; type: cell-based; conditions: HEK293 cells overexpressing human CRHR2; relative EC50, maximum 10 nM human UCN2; mean ± SE; read-out: hCRHR2 cAMP EC50 (pM, ± SE)
T2 construct: expressed in transfected cells
T2 sequence (Q13324 1-438 isoform Q13324-2): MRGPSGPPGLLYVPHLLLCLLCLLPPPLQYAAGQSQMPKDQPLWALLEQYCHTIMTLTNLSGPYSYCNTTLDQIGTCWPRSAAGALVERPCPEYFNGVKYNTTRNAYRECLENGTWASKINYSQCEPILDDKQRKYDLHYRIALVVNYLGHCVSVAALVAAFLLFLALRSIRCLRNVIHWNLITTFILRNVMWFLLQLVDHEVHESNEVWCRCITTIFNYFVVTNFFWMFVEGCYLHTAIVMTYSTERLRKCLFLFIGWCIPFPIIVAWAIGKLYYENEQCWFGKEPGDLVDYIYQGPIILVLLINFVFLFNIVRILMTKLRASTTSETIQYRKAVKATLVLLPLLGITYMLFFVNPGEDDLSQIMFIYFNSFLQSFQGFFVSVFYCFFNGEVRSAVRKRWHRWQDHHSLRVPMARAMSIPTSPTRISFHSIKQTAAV
Method in brief: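 Stably expressing HEK293 clones received peptide concentration series in phosphodiesterase-inhibited buffer (0.25 mM IBMX, pH 7.4). After receptor-specific incubation (CRHR1 1 h at 37° C; CRHR2 30 min at room temperature), cells were lysed with HTRF cAMP reagents for 60 min and the 665/620 nm ratio recorded.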

| Compound | EC50 (human CRHR1) | EC50 (human CRHR2) |
| --- | --- | --- |
| Ac-GSPSIVTS[αMeL]DVPT[Aib][αMeL]LQKILEQERAEKARQQAK([Gly-βAla-βAla-βAla-γGlu-C20 diacid])EAAEILAQV-NH2 [SEQ ID NO: 7, Ac-GSPSIVTS αMeL DVPT Aib αMeL LQKILEQERAEKARQQAK(G-(βA)3-γE-CO-(CH2)18-CO2H)EAAEILAQV-NH2] | > 1e+07 pM | 10.6 ± 1.4 pM |
| Ac-GSPSIVTS[αMeL]DVPT[Aib][αMeL]LQKILEQERAEKARQQAKEAAEILAQV-NH2 [SEQ ID NO: 20] | > 1e+07 pM | 15.3 ± 1.4 pM |
| CC[C@H](C)[C@H](NC(C)=O)C(=O)N[C@H](C(=O)N[C@H](C(=O)N[C@@H](CO)C(=O)N[C@@](C)(CC(C)C)C(=O)N[C@@H](CC(=O)O)C(=O)N[C@@H](C(=O)N1CCC[C@H]1C(=O)N[C@H](C(=O)NCC(=O)N[C@@](C)(CC(C)C)C(=O)N[C@@H](CC(C)C)C(=O)N[C@@H](CCC(N)=O)C(=O)N[C@H](C(=O)N[C@@H](CCCCN)C(=O)N[C@@H](CC(C)C)C(=O)N[C@@H](CCC(=O)O)C(=O)N[C@@H](CCC(N)=O)C(=O)N[C@@H](CCC(=O)O)C(=O)N[C@@H](CCCNC(=N)N)C(=O)N[C@@H](C)C(=O)N[C@@H](CCC(=O)O)C(=O)N[C@@H](CCCCN)C(=O)N[C@@H](C)C(=O)N[C@@H](CCCNC(=N)N)C(=O)N[C@@H](CCC(N)=O)C(=O)N[C@@H](CCC(N)=O)C(=O)N[C@@H](C)C(=O)N[C@@H](CCCCNC(=O)[C@@H](N)CCCCNC(=O)COCCOCCNC(=O)CC[C@H](NC(=O)CCCCCCCCCCCCCCCCCCC(=O)O)C(=O)O)C(=O)N[C@@H](CCC(=O)O)C(=O)N[C@@H](CC(N)=O)C(=O)N[C@H](C(=O)N[C@@H](CCC(=O)O)C(=O)N[C@H](C(=O)N[C@@H](CC(C)C)C(=O)N[C@@H](C)C(=O)N[C@@H](CCC(N)=O)C(=O)N[C@H](C(N)=O)C(C)C)[C@@H](C)CC)[C@@H](C)O)[C@@H](C)CC)[C@@H](C)O)C(C)C)[C@@H](C)O)C(C)C [SEQ ID NO: 34, Ac-IVTS αMeL D (D-Val) PTG αMeL LQIKLEQERAEKARQQAK(ϵK-(2-[2-(2-Amino-ethoxy)-ethoxy]-acetyl)-γE-CO-(CH2)18-CO2H)ENTEILAQV-NH2] (Ac-IVTS[αMeL]D[dV]PTG[αMeL]LQIKLEQERAEKARQQAK([εLys-AEEA-γGlu-C20 diacid])ENTEILAQV-NH2) | > 1e+07 pM | 4.9 ± 0.7 pM |
| CC[C@H](C)[C@H](NC(C)=O)C(=O)N[C@H](C(=O)N[C@H](C(=O)N[C@@H](CO)C(=O)N[C@@](C)(CC(C)C)C(=O)N[C@@H](CC(=O)O)C(=O)N[C@@H](C(=O)N1CCC[C@H]1C(=O)N[C@H](C(=O)NCC(=O)N[C@@](C)(CC(C)C)C(=O)N[C@@H](CC(C)C)C(=O)N[C@@H](CCC(N)=O)C(=O)N[C@H](C(=O)N[C@@H](CCCCN)C(=O)N[C@@H](CC(C)C)C(=O)N[C@@H](CCC(=O)O)C(=O)N[C@@H](CCC(N)=O)C(=O)N[C@@H](CCC(=O)O)C(=O)N[C@@H](CCCNC(=N)N)C(=O)N[C@@H](C)C(=O)N[C@@H](CCC(=O)O)C(=O)N[C@@H](CCCCN)C(=O)N[C@@H](C)C(=O)N[C@@H](CCCNC(=N)N)C(=O)N[C@@H](CCC(N)=O)C(=O)N[C@@H](CCC(N)=O)C(=O)N[C@@H](C)C(=O)N[C@@H](CCCCNC(=O)COCCOCCNC(=O)CC[C@H](NC(=O)CC[C@H](NC(=O)CCCCCCCCCCCCCCCCCCC(=O)O)C(=O)O)C(=O)O)C(=O)N[C@@H](CCC(=O)O)C(=O)N[C@@H](CC(N)=O)C(=O)N[C@H](C(=O)N[C@@H](CCC(=O)O)C(=O)N[C@H](C(=O)N[C@@H](CC(C)C)C(=O)N[C@@H](C)C(=O)N[C@@H](CCC(N)=O)C(=O)N[C@H](C(N)=O)C(C)C)[C@@H](C)CC)[C@@H](C)O)[C@@H](C)CC)[C@@H](C)O)C(C)C)[C@@H](C)O)C(C)C [SEQ ID NO: 44, Ac-IVTS αMeL D (D-Val) PTG αMeL LQIKLEQERAEKARQQAK((2-[2-(2-Amino-ethoxy)-ethoxy]-acetyl)-(γE)2-CO-(CH2)18-CO2H)ENTEILAQV-NH2] (Ac-IVTS[αMeL]D[dV]PTG[αMeL]LQIKLEQERAEKARQQAK([AEEA-γGlu-γGlu-C20 diacid])ENTEILAQV-NH2) | > 1e+07 pM | 5.4 ± 0.5 pM |

Further lines, results first:

| EC50 (human CRHR1) | EC50 (human CRHR2) | Compound |
| --- | --- | --- |
| > 1e+07 pM | 18.3 ± 2.1 pM | Ac-GSPSIVTS[αMeL]DVPT[Aib][αMeL]LQKILEQERAEKARQQAK([AEEA-Pro-Lys-Glu-γGlu-C20 diacid])EAAEILAQV-NH2 [SEQ ID NO: 3, Ac-GSPSIVTS αMeL DVPT Aib αMeL LQKILEQERAEKARQQAK((2-[2-(2-Amino-ethoxy)-ethoxy]-acetyl)-PKE-γE-CO-(CH2)18-CO2H)EAAEILAQV-NH2] |
| > 1e+07 pM | 12.5 ± 1.1 pM | I: Ac-GSPSIVTS[αMeL]DVPT[Aib][αMeL]LQKILEQERAEKARQQAKEAAEILAQV-NH2 / II: {C20 diacid}-EPEPEP[γGlu] (amide I:33-II:C) [SEQ ID NO: 16, Ac-GSPSIVTS αMeL DVPT Aib αMeL LQKILEQERAEKARQQAK(γE-PEPEPE-CO-(CH2)18-CO2H)EAAEILAQV-NH2] |
| > 1e+07 pM | 23.6 ± 2.9 pM | H-GSPSIVTS[αMeL]DVPT[Aib][αMeL]LQKILEQERAEKARQQATEAAEILAQV-NH2 [SEQ ID NO: 27] |
| > 1e+07 pM | 10.9 ± 1.3 pM | Ac-GSPSIVTS[αMeL]DVPT[Aib][αMeL]LQKILEQERAEKARQQAK([γGlu-εLys-γGlu-εLys-C20 diacid])EAAEILAQV-NH2 [SEQ ID NO: 18, Ac-GSPSIVTS αMeL DVPT Aib αMeL LQKILEQERAEKARQQAK(γE-ϵK-γE-ϵK-CO-(CH2)18-CO2H)EAAEILAQV-NH2] |
